Values joined by “and” are separate entries in the source; they are usually repeats but may differ in a detail not shown here. Equal values may be shown once. Read-outs that look alike come from different tables or passages of the source.
Experiment: Tissue distribution study in mice, 20 mg/kg i.p.
Assay type: in vivo, C57BL/6 J mice
Conditions: mouse; for Plasma or Tissue Homogenate Conc (individual animals) / concentration at 0.5 h / concentration at 1 h / concentration at 2 h / concentration at 4 h / concentration at 8 h: 20 mg/kg
Method: Male C57BL/6 J (Jackson Laboratories) wild type mice (age: 40–60 days) weighing 25–30 g, were used for the tissue distribution study. Mice were randomly assigned in two groups: blank (n = 1) and treatment. The treatment group received 20 mg/kg compound 424 intraperitoneally (n = 15; 3 animals per time point i.e., 0.5, 1, 2, 4, and 8 h). Molport 002–877–424 was formulated in a vehicle consisting of 20 % DMSO, 50 % PEG300, and 30 % sterile water. At each time point animals were euthanized via isoflurane overdose. Blood was collected in ETDA-coated tubes at each time points and centrifuged at 15,000 x g for 5 min. The separated plasma was stored at −80 °C. Following blood collection, liver, kidney, skeletal muscle and brain were isolated, rinsed in normal saline and approximately 100 mg of tissues were snap-frozen and stored at −80 °C. All plasma and tissue samples were shipped on dry ice to Touchstone Biosciences for further analysis. Sample preparation and analysis was performed at Touchstone Biosciences exactly as described in [20].

For `c1ccc(-c2nnc(-c3ccccn3)nc2NC2CCCCC2)cc1` [MolPort-002-877-424, C1CCC(CC1)Nc2nc(nnc2c3ccccc3)c4ccccn4], which “Plasma or Tissue Homogenate Conc (individual animals)” value (from here on “Plasma or Tissue Homogenate Conc”) (Brain, 0.5 h, IP 20 mg/kg) is on record?
Its value is 391 ng/mL and 321 ng/mL.

And the “Plasma or Tissue Homogenate Conc” value (Brain, 1 h, IP 20 mg/kg)?
The value was 323 ng/mL and 318 ng/mL.

And the “Plasma or Tissue Homogenate Conc” value (Brain, 2 h, IP 20 mg/kg)?
The value was 160 ng/mL and 129 ng/mL.

What about the “Plasma or Tissue Homogenate Conc” value (Brain, 4 h, IP 20 mg/kg) of the same compound?
The value was 69.3 ng/mL and 59.0 ng/mL.

What about the “Plasma or Tissue Homogenate Conc” value (Brain, 8 h, IP 20 mg/kg) of the same compound?
The value was 29.7 ng/mL and 17.1 ng/mL.

And the “Plasma or Tissue Homogenate Conc” value (Kidney, 0.5 h, IP 20 mg/kg)?
Its value is 2870 ng/mL and 2290 ng/mL.

What about the “Plasma or Tissue Homogenate Conc” value (Kidney, 1 h, IP 20 mg/kg) of the same compound?
The value was 2330 ng/mL and 2470 ng/mL.

What about the “Plasma or Tissue Homogenate Conc” value (Kidney, 2 h, IP 20 mg/kg) of the same compound?
The value was 1240 ng/mL and 925 ng/mL.

And the “Plasma or Tissue Homogenate Conc” value (Kidney, 4 h, IP 20 mg/kg)?
Its value is 538 ng/mL and 466 ng/mL.

What about the “Plasma or Tissue Homogenate Conc” value (Kidney, 8 h, IP 20 mg/kg) of the same compound?
Its value is 239 ng/mL and 196 ng/mL.

And the “Plasma or Tissue Homogenate Conc” value (Liver, 0.5 h, IP 20 mg/kg)?
The value was 3410 ng/mL and 3100 ng/mL.

And the “Plasma or Tissue Homogenate Conc” value (Liver, 1 h, IP 20 mg/kg)?
Its value is 3010 ng/mL and 3640 ng/mL.

And the “Plasma or Tissue Homogenate Conc” value (Liver, 2 h, IP 20 mg/kg)?
Its value is 1750 ng/mL and 1580 ng/mL.

And the “Plasma or Tissue Homogenate Conc” value (Liver, 4 h, IP 20 mg/kg)?
The value was 777 ng/mL and 744 ng/mL.

And the “Plasma or Tissue Homogenate Conc” value (Liver, 8 h, IP 20 mg/kg)?
The value was 311 ng/mL and 303 ng/mL.

What about the “Plasma or Tissue Homogenate Conc” value (Muscle, 0.5 h, IP 20 mg/kg) of the same compound?
The value was 648 ng/mL and 456 ng/mL.

And the “Plasma or Tissue Homogenate Conc” value (Muscle, 1 h, IP 20 mg/kg)?
The value was 354 ng/mL and 480 ng/mL.

And the “Plasma or Tissue Homogenate Conc” value (Muscle, 2 h, IP 20 mg/kg)?
The value was 206 ng/mL and 218 ng/mL.

And the “Plasma or Tissue Homogenate Conc” value (Muscle, 4 h, IP 20 mg/kg)?
Its value is 92.1 ng/mL and 94.2 ng/mL.

And the “Plasma or Tissue Homogenate Conc” value (Muscle, 8 h, IP 20 mg/kg)?
Its value is 39.8 ng/mL and 33.3 ng/mL.

What about the “Plasma or Tissue Homogenate Conc” value (Plasma, 0.5 h, IP 20 mg/kg) of the same compound?
Its value is 10300 ng/mL and 8770 ng/mL.

And the “Plasma or Tissue Homogenate Conc” value (Plasma, 1 h, IP 20 mg/kg)?
Its value is 8560 ng/mL and 11200 ng/mL.

And the “Plasma or Tissue Homogenate Conc” value (Plasma, 2 h, IP 20 mg/kg)?
The value was 4380 ng/mL and 4500 ng/mL.

What about the “Plasma or Tissue Homogenate Conc” value (Plasma, 4 h, IP 20 mg/kg) of the same compound?
The value was 2660 ng/mL and 1990 ng/mL.

What about the “Plasma or Tissue Homogenate Conc” value (Plasma, 8 h, IP 20 mg/kg) of the same compound?
The value was 1310 ng/mL and 925 ng/mL.

What about the Kp (male, C57BL/6 J, brain, ip, 20 mg/kg i.p., read-out: mean tissue to plasma ratios (brain)) of the same compound?
Its Kp is ≤ 0.134.

And the Kp at 0.5 h (male, C57BL/6J, kidney/plasma, Kidney, 0.5 h, IP 20 mg/kg, read-out: Mean Tissue/ Plasma Conc Ratio)?
Its Kp at 0.5 h is 0.94.

And the Kp at 0.5 h (male, C57BL/6J, liver/plasma, Liver, 0.5 h, IP 20 mg/kg, read-out: Mean Tissue/ Plasma Conc Ratio)?
Its Kp at 0.5 h is 1.38.

What about the Kp at 1 h (male, C57BL/6J, liver/plasma, Liver, 1 h, IP 20 mg/kg, read-out: Mean Tissue/ Plasma Conc Ratio) of the same compound?
Its Kp at 1 h is 1.33.

What about the Kp at 2 h (male, C57BL/6J, liver/plasma, Liver, 2 h, IP 20 mg/kg, read-out: Mean Tissue/ Plasma Conc Ratio) of the same compound?
Its Kp at 2 h is 1.3.

And the Kp at 4 h (male, C57BL/6J, liver/plasma, Liver, 4 h, IP 20 mg/kg, read-out: Mean Tissue/ Plasma Conc Ratio)?
Its Kp at 4 h is 1.25.

What about the Kp at 8 h (male, C57BL/6J, liver/plasma, Liver, 8 h, IP 20 mg/kg, read-out: Mean Tissue/ Plasma Conc Ratio) of the same compound?
Its Kp at 8 h is 1.06.

And the concentration at 0.5 h (male, C57BL/6 J, brain homogenate, ip, Brain, 0.5 h, IP 20 mg/kg, read-out: Mean Plasma or Tissue Homogenate Conc)?
Its concentration at 0.5 h is 350 ng/mL.

What about the concentration at 0.5 h (male, C57BL/6 J, brain homogenate, ip, Brain, 0.5 h, IP 20 mg/kg, read-out: Plasma or Tissue Homogenate Conc (individual animals)) of the same compound?
The concentration at 0.5 h was 339 ng/mL.

And the concentration at 1 h (male, C57BL/6 J, brain homogenate, ip, Brain, 1 h, IP 20 mg/kg, read-out: Mean Plasma or Tissue Homogenate Conc)?
Its concentration at 1 h is 276 ng/mL.

What about the concentration at 1 h (male, C57BL/6 J, brain homogenate, ip, Brain, 1 h, IP 20 mg/kg, read-out: Plasma or Tissue Homogenate Conc (individual animals)) of the same compound?
Its concentration at 1 h is 186 ng/mL.

And the concentration at 2 h (male, C57BL/6 J, brain homogenate, ip, Brain, 2 h, IP 20 mg/kg, read-out: Mean Plasma or Tissue Homogenate Conc)?
The concentration at 2 h was 136 ng/mL.

What about the concentration at 2 h (male, C57BL/6 J, brain homogenate, ip, Brain, 2 h, IP 20 mg/kg, read-out: Plasma or Tissue Homogenate Conc (individual animals)) of the same compound?
Its concentration at 2 h is 118 ng/mL.

What about the concentration at 4 h (male, C57BL/6 J, brain homogenate, ip, Brain, 4 h, IP 20 mg/kg, read-out: Mean Plasma or Tissue Homogenate Conc) of the same compound?
The concentration at 4 h was 57.5 ng/mL.

And the concentration at 4 h (male, C57BL/6 J, brain homogenate, ip, Brain, 4 h, IP 20 mg/kg, read-out: Plasma or Tissue Homogenate Conc (individual animals))?
Its concentration at 4 h is 44.1 ng/mL.

And the concentration at 8 h (male, C57BL/6 J, brain homogenate, ip, Brain, 8 h, IP 20 mg/kg, read-out: Mean Plasma or Tissue Homogenate Conc)?
Its concentration at 8 h is 22.3 ng/mL.

And the concentration at 8 h (male, C57BL/6 J, brain homogenate, ip, Brain, 8 h, IP 20 mg/kg, read-out: Plasma or Tissue Homogenate Conc (individual animals))?
Its concentration at 8 h is 20.2 ng/mL.

And the concentration at 0.5 h (male, C57BL/6 J, brain, ip, Brain, 0.5 h, IP 20 mg/kg, read-out: Mean Tissue)?
Its concentration at 0.5 h is 1400 ng/g.

What about the concentration at 1 h (male, C57BL/6 J, brain, ip, Brain, 1 h, IP 20 mg/kg, read-out: Mean Tissue) of the same compound?
The concentration at 1 h was 1100 ng/g.

What about the concentration at 2 h (male, C57BL/6 J, brain, ip, Brain, 2 h, IP 20 mg/kg, read-out: Mean Tissue) of the same compound?
Its concentration at 2 h is 543 ng/g.

And the concentration at 4 h (male, C57BL/6 J, brain, ip, Brain, 4 h, IP 20 mg/kg, read-out: Mean Tissue)?
Its concentration at 4 h is 230 ng/g.

What about the concentration at 8 h (male, C57BL/6 J, brain, ip, Brain, 8 h, IP 20 mg/kg, read-out: Mean Tissue) of the same compound?
Its concentration at 8 h is 89.3 ng/g.

And the concentration at 0.5 h (male, C57BL/6J, kidney homogenate, ip, Kidney, 0.5 h, IP 20 mg/kg, read-out: Mean Plasma or Tissue Homogenate Conc)?
The concentration at 0.5 h was 2460 ng/mL.

What about the concentration at 0.5 h (male, C57BL/6J, kidney homogenate, ip, Kidney, 0.5 h, IP 20 mg/kg, read-out: Plasma or Tissue Homogenate Conc (individual animals)) of the same compound?
The concentration at 0.5 h was 2210 ng/mL.

And the concentration at 1 h (male, C57BL/6 J, kidney homogenate, ip, Kidney, 1 h, IP 20 mg/kg, read-out: Mean Plasma or Tissue Homogenate Conc)?
Its concentration at 1 h is 2130 ng/mL.

What about the concentration at 1 h (male, C57BL/6 J, kidney homogenate, ip, Kidney, 1 h, IP 20 mg/kg, read-out: Plasma or Tissue Homogenate Conc (individual animals)) of the same compound?
Its concentration at 1 h is 1580 ng/mL.

What about the concentration at 2 h (male, C57BL/6 J, kidney homogenate, ip, Kidney, 2 h, IP 20 mg/kg, read-out: Mean Plasma or Tissue Homogenate Conc) of the same compound?
Its concentration at 2 h is 1020 ng/mL.

And the concentration at 2 h (male, C57BL/6 J, kidney homogenate, ip, Kidney, 2 h, IP 20 mg/kg, read-out: Plasma or Tissue Homogenate Conc (individual animals))?
The concentration at 2 h was 889 ng/mL.

And the concentration at 4 h (male, C57BL/6 J, kidney homogenate, ip, Kidney, 4 h, IP 20 mg/kg, read-out: Mean Plasma or Tissue Homogenate Conc)?
The concentration at 4 h was 439 ng/mL.

What about the concentration at 4 h (male, C57BL/6 J, kidney homogenate, ip, Kidney, 4 h, IP 20 mg/kg, read-out: Plasma or Tissue Homogenate Conc (individual animals)) of the same compound?
The concentration at 4 h was 314 ng/mL.

What about the concentration at 8 h (male, C57BL/6 J, kidney homogenate, ip, Kidney, 8 h, IP 20 mg/kg, read-out: Mean Plasma or Tissue Homogenate Conc) of the same compound?
Its concentration at 8 h is 196 ng/mL.

What about the concentration at 8 h (male, C57BL/6 J, kidney homogenate, ip, Kidney, 8 h, IP 20 mg/kg, read-out: Plasma or Tissue Homogenate Conc (individual animals)) of the same compound?
Its concentration at 8 h is 153 ng/mL.

What about the concentration at 0.5 h (male, C57BL/6J, kidney, ip, Kidney, 0.5 h, IP 20 mg/kg, read-out: Mean Tissue) of the same compound?
Its concentration at 0.5 h is 9830 ng/g.

And the concentration at 1 h (male, C57BL/6 J, kidney, ip, Kidney, 1 h, IP 20 mg/kg, read-out: Mean Tissue)?
The concentration at 1 h was 8510 ng/g.

What about the concentration at 2 h (male, C57BL/6 J, kidney, ip, Kidney, 2 h, IP 20 mg/kg, read-out: Mean Tissue) of the same compound?
Its concentration at 2 h is 4070 ng/g.

What about the concentration at 4 h (male, C57BL/6 J, kidney, ip, Kidney, 4 h, IP 20 mg/kg, read-out: Mean Tissue) of the same compound?
The concentration at 4 h was 1760 ng/g.

And the concentration at 8 h (male, C57BL/6 J, kidney, ip, Kidney, 8 h, IP 20 mg/kg, read-out: Mean Tissue)?
The concentration at 8 h was 784 ng/g.
